# Measured values from ChEMBL document CHEMBL1134540, “ElogD(oct): a tool for lipophilicity determination in drug discovery. 2. Basic and neutral compounds” (J Med Chem, 2001).
# Assay: Partition coefficient (logD7.4)
# Details: octanol/water, pH 7.4
row,SMILES,logD
1,Brc1cnc2ccccc2c1,3.03
2,Clc1cccc(Cl)c1N=C1NCCN1 [CLONIDINE],0.62
3,CNS(=O)(=O)Cc1ccc2[nH]cc(CCN(C)C)c2c1,-1
4,O=C(NCC1CCCCN1)c1cc(OCC(F)(F)F)ccc1OCC(F)(F)F (stereo unspecified) [FLECAINIDE],0.97
5,CNC(=C[N+](=O)[O-])NCCSCc1ccc(CN(C)C)o1 [RANITIDINE],-0.29
6,CN1CCC[C@H]1c1cccnc1 [NICOTINE],0.4
7,COc1ccc2c3c1O[C@H]1[C@@H](O)C=C[C@H]4[C@@H](C2)N(C)CC[C@@]341 [CODEINE],0.23
8,C[C@]12CC[C@H]3[C@@H](CCC4=CC(=O)CC[C@@]43C)[C@@H]1CC[C@@H]2O [TESTOSTERONE],3.29
9,CS(=O)(=O)c1ccc([C@@H](O)[C@@H](CO)NC(=O)C(Cl)Cl)cc1 [THIAMPHENICOL],-0.27
10,c1ccc2ncccc2c1 [QUINOLINE],2.03
11,CC(C)(C)NCC(O)c1cc(O)cc(O)c1 (stereo unspecified),-1.35
12,CN(C)CCC(c1ccc(Cl)cc1)c1ccccn1 (stereo unspecified) [CHLORPHENIRAMINE],1.41
13,CCN(CC)CCNC(=O)c1cc(S(C)(=O)=O)ccc1OC [TIAPRIDE],-0.09
14,CCOC(=O)C1=C(COCCN)NC(C)=C(C(=O)OC)C1c1ccccc1Cl (stereo unspecified) [AMLODIPINE],1.66
15,COC(=O)[C@H]1[C@@H](OC(=O)c2ccccc2)C[C@@H]2CC[C@H]1N2C [COCAINE],1.05
16,CC/C(=C(/CC)c1ccc(O)cc1)c1ccc(O)cc1 [DIETHYLSTILBESTROL],5.07
17,c1ccc(-c2ccc(C(c3ccccc3)n3ccnc3)cc2)cc1 (stereo unspecified) [BIFONAZOLE],4.77
18,O=[N+]([O-])c1ccc(/C=N/O)o1 [NIFUROXIME],1.28

row,SMILES,logD
1,CCCCNc1ccc(C(=O)OCCN(C)C)cc1 [TETRACAINE],2.29
2,NS(=O)(=O)c1cc(C2(O)NC(=O)c3ccccc32)ccc1Cl (stereo unspecified) [CHLORTHALIDONE],1.11
3,CSc1ccc2c(c1)N(CCC1CCCCN1C)c1ccccc1S2 (stereo unspecified) [THIORIDAZINE],3.34
4,CC(C)N(CCC(C(N)=O)(c1ccccc1)c1ccccn1)C(C)C (stereo unspecified) [DISOPYRAMIDE],-0.66
5,COC1=CC(=O)C[C@@H](C)[C@]12Oc1c(Cl)c(OC)cc(OC)c1C2=O [GRISEOFULVIN],2.18
6,CSc1ncnc2c1ncn2[C@@H]1O[C@H](CO)[C@@H](O)[C@H]1O,0.09
7,O=C1CN=C(c2ccccn2)c2cc(Br)ccc2N1 [BROMAZEPAM],1.65
8,CNC(=C[N+](=O)[O-])NCCSCc1csc(CN(C)C)n1 [NIZATIDINE],-0.52
9,Oc1cc(Cl)cc(Cl)c1,3.68
10,Oc1ncnc2[nH]ncc12 [ALLOPURINOL],-0.44
11,NC(=O)N/N=C/c1ccc([N+](=O)[O-])o1 [NITROFURAZONE],0.23
12,CC(=O)CCCCn1c(=O)c2c(ncn2C)n(C)c1=O [PENTOXIFYLLINE],0.29
13,COc1ccc2[nH]c([S+]([O-])Cc3ncc(C)c(OC)c3C)nc2c1 (stereo unspecified) [OMEPRAZOLE],2.3
14,CN1C(=O)C(O)N=C(c2ccccc2Cl)c2cc(Cl)ccc21 (stereo unspecified) [LORMETAZEPAM],2.72
15,NC(=O)N1c2ccccc2C=Cc2ccccc21 [CARBAMAZEPINE],2.19
16,C=CCc1ccccc1OCC(O)CNC(C)C (stereo unspecified) [ALPRENOLOL],0.97
17,CN1CCN(CC(=O)N2c3ccccc3C(=O)Nc3cccnc32)CC1 [PIRENZEPINE],-0.61
18,Nc1nc(N)c2nc(-c3ccccc3)c(N)nc2n1,1.21
